What was measured:
[1] = target: ROCK-II (h, amino acids 11-552) (Homo sapiens (Human), UniProt O75116); assay: ROCK-II (h) inhibition assay; type: biochemical; details: [γ-32P-ATP] filter assay, 40 minutes at room temperature, read-out: ROCK2 IC50
Procedure: ROCK-II (h) Inhibition Assay:
In a final reaction volume of 25 μL, ROCK-II (h, amino acids 11-552) (5-10 mU) was incubated with 50 mM Tris pH 7.5, 0.1 mM EGTA, 30 μM […], 10 mM magnesium acetate and [γ-^32P-ATP] (specific activity approx. 500 cpm/pmol, concentration as required). The reaction was initiated by the addition of the MgATP mix. After incubation for 40 minutes at room temperature, the reaction was stopped by the addition of 5 μL of a 3% phosphoric acid solution. 10 μL of the reaction was then spotted onto a P30 filter-mat and washed three times for 5 minutes in 75 mM phosphoric acid and once in methanol prior to drying and scintillation counting.

blood pressure = details: spontaneously hypertensive, renal hypertensive and deoxycortisone acetate salt hypertensive rats; cited from earlier work
neointimal formation = details: rats; cited from earlier work
[2] = system: ventricular hypertrophy and function; details: Dahl salt-sensitive rats; cited from earlier work
ROCK = details: competition with intracellular micromolar ATP; cited from earlier work
coronary stenosis = details: porcine, long term treatment; cited from earlier work
[3] = system: infarct size and neurologic deficit; details: rat stroke model; cited from earlier work

Chain of ROCK-II (h, amino acids 11-552) (O75116 11-552): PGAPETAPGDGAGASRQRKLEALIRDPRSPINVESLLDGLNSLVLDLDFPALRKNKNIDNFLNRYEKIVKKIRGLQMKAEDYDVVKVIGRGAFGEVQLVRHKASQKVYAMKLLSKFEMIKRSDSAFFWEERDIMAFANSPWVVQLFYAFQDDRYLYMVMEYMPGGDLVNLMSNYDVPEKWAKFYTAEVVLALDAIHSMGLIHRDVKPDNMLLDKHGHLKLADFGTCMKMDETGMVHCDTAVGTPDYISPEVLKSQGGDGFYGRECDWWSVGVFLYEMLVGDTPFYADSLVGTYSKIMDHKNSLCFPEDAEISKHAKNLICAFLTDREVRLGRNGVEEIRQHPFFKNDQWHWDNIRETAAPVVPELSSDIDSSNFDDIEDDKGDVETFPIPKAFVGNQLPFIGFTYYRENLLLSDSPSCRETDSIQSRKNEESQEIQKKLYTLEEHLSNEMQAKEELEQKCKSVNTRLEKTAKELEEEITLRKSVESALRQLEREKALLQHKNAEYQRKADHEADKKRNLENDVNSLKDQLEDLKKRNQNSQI

## C[C@@]1(Cc2ccc(-c3ccncc3)cc2)NC(=O)c2cc(Cl)ccc2NC1=O [Compound 2, (S)-7-chloro-3-methyl-3-(4-(pyridin-4-yl)benzyl)-3,4-dihydro-1H-benzo[e][1,4]diazepine-2,5-dione]
[1]
  IC50: > 10000 nM

## CN1C(=O)[C@@H](Cc2ccc(-c3ccncc3)cc2)NC(=O)c2cccc(Cl)c21 [Compound 5, (R)-9-chloro-1-methyl-3-(4-(pyridin-4-yl)benzyl)-3,4-dihydro-1H-benzo[e][1,4]diazepine-2,5-dione]
[1]
  IC50: 1000 nM

## C[C@@H](N)[C@H]1CC[C@H](C(=O)Nc2ccncc2)CC1 [Compound Y-27632, Y-27632]
Blood pressure
  effect on blood pressure: significantly decrease blood pressure
Neointimal formation
  effect on neointimal formation: inhibited neointimal formation
[2]
  effect on ventricular hypertrophy and function: improve ventricular hypertrophy and function
ROCK
  decrease in activity in cellular assays as compared to in vitro activities: 100-1,000 fold

## O=S(=O)(c1cccc2cnccc12)N1CCCNCC1 [fasudil]
Coronary stenosis
  effect on coronary stenosis: progressively reduce coronary stenosis
[3]
  effect on infarct size and neurologic deficit: reduce both the infarct size and neurologic deficit

— patent publication US9849138B2, “1,4-benzodiazepone-2,5-diones and related compounds with therapeutic properties” (The Regents of the University of Michigan, priority 2009, dated 2017)
